Our source for the IC50 and half-life values is patent publication US10045981B2, “Selective kinase inhibitors” (JAKPHARM, LLC, priority 2015, dated 2018).

Where two headings read alike, the source gives them in different places. A value given as a limit tells only on which side of the number the result lay.

One data set has as its target JAK1 (Homo sapiens, UniProt P23458). As to the kind of experiment: JAK1 IC50. Format: biochemical.
In a further data set the target is T1, TXK (Homo sapiens, UniProt P42681).
T1 sequence (P42681 1-527): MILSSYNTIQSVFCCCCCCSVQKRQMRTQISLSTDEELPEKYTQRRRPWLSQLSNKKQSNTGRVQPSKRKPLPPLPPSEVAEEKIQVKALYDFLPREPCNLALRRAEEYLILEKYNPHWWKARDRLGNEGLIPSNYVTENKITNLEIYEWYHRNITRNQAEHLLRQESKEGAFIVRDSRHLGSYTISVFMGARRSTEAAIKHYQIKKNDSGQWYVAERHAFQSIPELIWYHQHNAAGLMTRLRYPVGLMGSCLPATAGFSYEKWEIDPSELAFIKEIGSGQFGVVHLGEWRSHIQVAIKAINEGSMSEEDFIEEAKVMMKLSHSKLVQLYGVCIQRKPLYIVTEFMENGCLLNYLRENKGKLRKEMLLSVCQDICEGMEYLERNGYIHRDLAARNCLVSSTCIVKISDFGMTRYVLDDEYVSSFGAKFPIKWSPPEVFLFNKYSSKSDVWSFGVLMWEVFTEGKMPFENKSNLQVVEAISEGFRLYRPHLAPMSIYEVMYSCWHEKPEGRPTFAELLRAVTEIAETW
As to the kind of experiment: Exemplary Kinase Panel Analysis. In kind it is biochemical. Conditions: 10 concentrations, 3-fold serial dilutions starting at 5 μM, duplicate.

The target in another data set is T2, JAK3 (Homo sapiens, UniProt P52333).
T2 sequence (P52333 1-1124): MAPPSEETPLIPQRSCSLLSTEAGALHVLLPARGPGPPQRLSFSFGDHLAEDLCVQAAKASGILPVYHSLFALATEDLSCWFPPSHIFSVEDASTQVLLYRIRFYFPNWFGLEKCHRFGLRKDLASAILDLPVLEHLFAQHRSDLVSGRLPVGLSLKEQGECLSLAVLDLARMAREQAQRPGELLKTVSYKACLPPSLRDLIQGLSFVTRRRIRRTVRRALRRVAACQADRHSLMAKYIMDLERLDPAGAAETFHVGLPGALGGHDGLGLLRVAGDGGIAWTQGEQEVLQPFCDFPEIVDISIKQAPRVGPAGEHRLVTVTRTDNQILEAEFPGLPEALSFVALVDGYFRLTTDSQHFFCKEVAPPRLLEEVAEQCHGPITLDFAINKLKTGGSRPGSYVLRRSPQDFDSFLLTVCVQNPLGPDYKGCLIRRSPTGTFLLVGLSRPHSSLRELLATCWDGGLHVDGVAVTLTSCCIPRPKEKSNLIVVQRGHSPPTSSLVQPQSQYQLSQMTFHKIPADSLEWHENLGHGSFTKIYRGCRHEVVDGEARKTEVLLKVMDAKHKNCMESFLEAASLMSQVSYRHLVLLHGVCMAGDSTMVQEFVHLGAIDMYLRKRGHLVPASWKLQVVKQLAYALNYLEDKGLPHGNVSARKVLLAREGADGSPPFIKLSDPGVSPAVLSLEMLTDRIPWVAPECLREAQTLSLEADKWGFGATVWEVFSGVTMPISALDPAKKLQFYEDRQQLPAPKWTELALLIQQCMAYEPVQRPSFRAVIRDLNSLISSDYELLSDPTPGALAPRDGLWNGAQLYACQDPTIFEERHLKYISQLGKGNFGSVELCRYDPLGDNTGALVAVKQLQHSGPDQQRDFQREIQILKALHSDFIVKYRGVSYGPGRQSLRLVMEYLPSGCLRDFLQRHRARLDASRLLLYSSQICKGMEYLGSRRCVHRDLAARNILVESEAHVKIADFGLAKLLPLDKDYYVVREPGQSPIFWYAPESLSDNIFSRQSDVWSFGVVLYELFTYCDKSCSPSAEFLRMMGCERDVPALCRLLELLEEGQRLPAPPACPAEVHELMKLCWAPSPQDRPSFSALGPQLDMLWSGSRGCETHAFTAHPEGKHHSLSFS
As to the kind of experiment: Exemplary Kinase Panel Analysis. Format: biochemical. To be noted: 10 concentrations, 3-fold serial dilutions starting at 5 μM, duplicate.

In a further data set the target is CK1g1 (Homo sapiens, UniProt Q9HCP0). Description: Exemplary Kinase Panel Analysis. Format: biochemical. To be noted: 10 concentrations, 3-fold serial dilutions starting at 5 μM, duplicate.
CK1g1, sequence (Q9HCP0 whole entry): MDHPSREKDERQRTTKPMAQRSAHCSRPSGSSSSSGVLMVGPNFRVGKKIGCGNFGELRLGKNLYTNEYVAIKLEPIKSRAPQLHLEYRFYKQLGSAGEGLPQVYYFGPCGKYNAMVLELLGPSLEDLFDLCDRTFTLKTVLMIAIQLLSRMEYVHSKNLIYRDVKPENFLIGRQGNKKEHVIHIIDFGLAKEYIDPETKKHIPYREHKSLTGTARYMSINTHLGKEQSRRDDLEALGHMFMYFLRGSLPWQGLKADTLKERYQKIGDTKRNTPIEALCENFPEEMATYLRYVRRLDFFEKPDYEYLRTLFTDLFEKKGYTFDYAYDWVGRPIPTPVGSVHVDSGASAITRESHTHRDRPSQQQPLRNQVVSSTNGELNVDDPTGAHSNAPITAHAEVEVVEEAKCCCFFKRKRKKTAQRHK
The nature of data set [1]: Rat Liver Microsomes stability. Format: in vitro ADME. Conditions: read-out: Rat Liver Microsomes t½. (In general: Microsomes from liver hold many membrane-bound enzymes, among them those of drug oxidation.)
Another data set has as its target EGFR (T790M) (Homo sapiens, UniProt P00533, T790M). Description: Exemplary Kinase Panel Analysis. In kind it is biochemical. To be noted: 10 concentrations, 3-fold serial dilutions starting at 5 μM, duplicate.
For the next data set, the target named is CK1g3 (Homo sapiens, UniProt Q9Y6M4). Description: Exemplary Kinase Panel Analysis. In kind it is biochemical. Conditions: 10 concentrations, 3-fold serial dilutions starting at 5 μM, duplicate.
CK1g3, sequence (Q9Y6M4 whole entry): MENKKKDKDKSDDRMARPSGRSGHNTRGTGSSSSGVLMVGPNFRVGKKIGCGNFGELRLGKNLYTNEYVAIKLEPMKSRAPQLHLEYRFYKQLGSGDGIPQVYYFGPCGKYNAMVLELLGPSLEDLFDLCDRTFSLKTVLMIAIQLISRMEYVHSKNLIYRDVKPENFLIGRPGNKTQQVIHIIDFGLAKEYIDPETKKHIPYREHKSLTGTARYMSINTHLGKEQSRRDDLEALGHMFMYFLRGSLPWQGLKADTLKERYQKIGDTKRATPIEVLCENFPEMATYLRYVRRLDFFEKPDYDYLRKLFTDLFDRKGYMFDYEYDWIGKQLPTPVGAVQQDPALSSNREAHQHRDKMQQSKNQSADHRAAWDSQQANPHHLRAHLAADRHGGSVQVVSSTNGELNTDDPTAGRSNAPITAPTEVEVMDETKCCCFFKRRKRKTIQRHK
The target of another data set is T3, ITK (Homo sapiens, UniProt Q08881).
T3 sequence (Q08881 1-620): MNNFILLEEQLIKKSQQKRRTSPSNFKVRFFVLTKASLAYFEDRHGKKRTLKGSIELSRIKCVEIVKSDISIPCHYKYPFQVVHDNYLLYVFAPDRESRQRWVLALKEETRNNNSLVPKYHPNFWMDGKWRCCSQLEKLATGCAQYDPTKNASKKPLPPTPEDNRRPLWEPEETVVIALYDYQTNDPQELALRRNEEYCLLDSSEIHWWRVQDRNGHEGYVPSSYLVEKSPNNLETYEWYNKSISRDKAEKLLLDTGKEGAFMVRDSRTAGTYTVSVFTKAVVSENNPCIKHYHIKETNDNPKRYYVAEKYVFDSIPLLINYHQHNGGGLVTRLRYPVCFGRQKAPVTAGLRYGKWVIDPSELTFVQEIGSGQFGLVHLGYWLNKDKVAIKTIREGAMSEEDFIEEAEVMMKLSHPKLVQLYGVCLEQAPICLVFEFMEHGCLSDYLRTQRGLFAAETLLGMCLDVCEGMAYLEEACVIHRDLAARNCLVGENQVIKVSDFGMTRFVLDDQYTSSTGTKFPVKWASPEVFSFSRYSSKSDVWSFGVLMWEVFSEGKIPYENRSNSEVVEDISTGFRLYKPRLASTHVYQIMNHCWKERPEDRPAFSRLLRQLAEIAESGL
Description: Exemplary Kinase Panel Analysis. Format: biochemical. Conditions: 10 concentrations, 3-fold serial dilutions starting at 5 μM, duplicate.

Setting [2] is: Original analysis, read-out: JAK1 IC50 (uM) Original.
The mark [3] stands for this setting: re-test, read-out: JAK1 IC50 (uM) re-test.

EGFR (T790M), sequence (P00533 25-1210 T790M): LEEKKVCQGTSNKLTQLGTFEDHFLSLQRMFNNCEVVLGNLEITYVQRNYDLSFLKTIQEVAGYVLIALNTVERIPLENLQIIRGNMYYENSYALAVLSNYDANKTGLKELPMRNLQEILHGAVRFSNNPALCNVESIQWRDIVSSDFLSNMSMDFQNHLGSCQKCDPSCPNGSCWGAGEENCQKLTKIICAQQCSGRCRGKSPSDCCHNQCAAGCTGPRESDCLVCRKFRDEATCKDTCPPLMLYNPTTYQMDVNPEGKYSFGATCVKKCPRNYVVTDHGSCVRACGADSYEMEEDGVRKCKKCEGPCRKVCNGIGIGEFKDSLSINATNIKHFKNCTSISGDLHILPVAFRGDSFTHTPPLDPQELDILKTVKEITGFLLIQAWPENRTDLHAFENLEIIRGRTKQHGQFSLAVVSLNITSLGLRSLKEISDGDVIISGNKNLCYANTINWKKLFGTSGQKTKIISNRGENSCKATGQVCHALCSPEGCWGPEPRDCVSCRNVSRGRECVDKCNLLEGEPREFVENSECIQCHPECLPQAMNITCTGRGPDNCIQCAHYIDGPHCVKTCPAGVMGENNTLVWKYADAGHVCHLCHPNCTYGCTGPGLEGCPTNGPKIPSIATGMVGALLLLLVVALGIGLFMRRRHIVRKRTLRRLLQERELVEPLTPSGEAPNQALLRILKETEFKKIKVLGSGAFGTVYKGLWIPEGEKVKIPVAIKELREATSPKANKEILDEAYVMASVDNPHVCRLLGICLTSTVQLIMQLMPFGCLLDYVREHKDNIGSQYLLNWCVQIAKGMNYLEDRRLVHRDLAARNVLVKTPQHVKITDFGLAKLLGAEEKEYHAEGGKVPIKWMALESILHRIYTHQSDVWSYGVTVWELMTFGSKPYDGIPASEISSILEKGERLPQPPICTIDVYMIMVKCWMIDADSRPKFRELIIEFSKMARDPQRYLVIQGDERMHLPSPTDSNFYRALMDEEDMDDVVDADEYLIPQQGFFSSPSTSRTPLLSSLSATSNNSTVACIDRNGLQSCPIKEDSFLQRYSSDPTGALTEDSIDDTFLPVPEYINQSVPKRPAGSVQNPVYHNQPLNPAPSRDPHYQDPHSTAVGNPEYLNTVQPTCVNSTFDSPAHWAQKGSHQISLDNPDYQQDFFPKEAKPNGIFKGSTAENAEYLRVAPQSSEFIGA
JAK1, sequence (P23458 whole entry, species assumed): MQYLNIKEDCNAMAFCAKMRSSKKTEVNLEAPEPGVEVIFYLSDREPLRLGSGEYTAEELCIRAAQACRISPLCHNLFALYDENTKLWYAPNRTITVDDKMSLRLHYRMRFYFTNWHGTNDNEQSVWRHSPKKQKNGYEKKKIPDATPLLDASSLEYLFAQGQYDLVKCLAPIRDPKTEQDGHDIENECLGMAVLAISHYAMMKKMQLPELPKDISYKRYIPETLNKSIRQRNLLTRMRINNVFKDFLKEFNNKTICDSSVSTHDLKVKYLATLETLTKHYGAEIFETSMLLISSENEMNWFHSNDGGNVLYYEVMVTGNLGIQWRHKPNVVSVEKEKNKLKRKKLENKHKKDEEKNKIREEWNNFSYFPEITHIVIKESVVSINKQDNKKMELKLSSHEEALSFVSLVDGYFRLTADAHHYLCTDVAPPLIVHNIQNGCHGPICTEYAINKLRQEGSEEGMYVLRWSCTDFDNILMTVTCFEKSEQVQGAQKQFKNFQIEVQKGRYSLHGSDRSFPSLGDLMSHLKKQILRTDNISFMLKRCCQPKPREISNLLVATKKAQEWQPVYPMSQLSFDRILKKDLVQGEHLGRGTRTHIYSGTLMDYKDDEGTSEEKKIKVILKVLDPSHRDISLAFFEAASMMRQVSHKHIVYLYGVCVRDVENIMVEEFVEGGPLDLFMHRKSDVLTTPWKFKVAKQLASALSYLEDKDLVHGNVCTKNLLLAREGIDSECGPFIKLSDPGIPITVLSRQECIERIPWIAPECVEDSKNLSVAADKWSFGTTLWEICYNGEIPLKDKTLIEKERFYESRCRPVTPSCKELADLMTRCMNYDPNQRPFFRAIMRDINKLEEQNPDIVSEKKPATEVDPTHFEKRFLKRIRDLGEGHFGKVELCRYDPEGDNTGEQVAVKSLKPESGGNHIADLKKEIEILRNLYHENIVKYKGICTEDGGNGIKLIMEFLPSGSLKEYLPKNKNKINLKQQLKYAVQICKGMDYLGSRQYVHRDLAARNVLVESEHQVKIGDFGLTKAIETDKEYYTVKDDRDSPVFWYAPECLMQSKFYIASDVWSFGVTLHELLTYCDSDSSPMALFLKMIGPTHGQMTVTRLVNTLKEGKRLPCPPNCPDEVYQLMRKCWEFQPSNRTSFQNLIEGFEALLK

The term IC50 denotes the point on the concentration scale where inhibition reaches its midpoint. As for `C=CC(=O)Nc1cc(CN2CCNC(=O)C2)cc(-c2cnc3ccccc3n2)c1` [Compound 1b, N-[3-[(3-oxopiperazin-1-yl)methyl]-5-quinoxalin-2-yl-phenyl] prop-2-enamide], the IC50 on JAK1 (setting [2]) is no less than 100 µM; at JAK1 (setting [3]) it was no less than 100 µM; at TXK, 16.1 nM; against JAK3 it was 0.972 nM; on CK1g1, 738 nM; against EGFR (T790M) it was 3540 nM. Further, the IC50 against CK1g3 is 757 nM; against ITK, 68 nM. For the same molecule, the half-life stood at 63 min in data set [1] (first session (before /)) and 77 min in data set [1] (second session (after /)).
Consider `C=CC(=O)Nc1cc(NS(C)(=O)=O)cc(-c2cnc3ccccc3n2)c1` [Compound 3], for which the IC50 was no less than 100 µM at JAK1 (setting [2]); no less than 100 µM at JAK1 (setting [3]); 144 nM against TXK; 24.9 nM at JAK3; 109 nM against CK1g1; 2240 nM against EGFR (T790M). Besides, the half-inhibitory concentration (IC50) against CK1g3 is 118 nM; against ITK, 278 nM. The half-life was determined as 38 min in data set [1] (first session (before /)) and 60 min in data set [1] (second session (after /)).
For the molecule `C=CC(=O)Nc1cc(CC(=O)OC)cc(-c2cnc3ccccc3n2)c1` [Compound 2], the IC50 at JAK1 (setting [2]) was no less than 100 µM; on JAK1 (setting [3]) it was no less than 100 µM; against TXK it was 14.9 nM; on JAK3, 1.19 nM; against CK1g1, 80.2 nM; against EGFR (T790M) it was 3310 nM. For the same molecule, the IC50 on CK1g3 stood at 24.4 nM; at ITK, 34.9 nM. The half-life in data set [1] (first session (before /)) stood at 2 min; in data set [1] (second session (after /)) it was 2.2 min.
`C=CC(=O)Nc1cc(CN2CCN(C)C(=O)C2)cc(-c2cnc3ccccc3n2)c1` [Compound 1a]: the IC50 at JAK1 (setting [2]) is no less than 100 µM; at JAK1 (setting [3]), no less than 100 µM; against TXK it was 31.6 nM; on JAK3, 1.57 nM; on CK1g1, 588 nM; against EGFR (T790M), 688 nM. Also, the IC50 against CK1g3 was found to be 358 nM; against ITK, 72.1 nM. Moreover, the half-life is 50 min in data set [1] (first session (before /)) and 36 min in data set [1] (second session (after /)).
